The source made the active and inactive calls.
Legend:
[1] = molecular target: T1, ATP-dependent translocase ABCB1 (Homo sapiens, UniProt P08183); assay: inhibition of BCRP-mediated JC-1 efflux – Ig-MXP3 cells, flow cytometry, set 2, dose response (AID 504566); format: functional; settings: read-out: EC50_MICROM_;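 further: flow cytometry median green fluorescence of retained JC-1 dye; potency of efflux pump inhibition measured as rising substrate retention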
[2] = molecular target: T1, ATP-dependent translocase ABCB1; assay: P-gp JC-1 efflux blockade concentration-response – Jurkat-DNR cells, flow cytometry, set 2, dose response (AID 504569); format: functional; settings: read-out: EC50_MICROM_;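 further: potency of pump inhibitors that raise cellular JC-1 green fluorescence up to the nicardipine level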
Protein Wnt-3a = Protein Wnt-3a (Mus musculus, UniProt P27467); assay: antagonism of Wnt3a pathway luciferase reporter – Wnt-LIGHT cells, luminescence, selectivity assay for Gli-SUFU antagonist project, dose response (AID 651570); format: functional; settings: read-out: IC50_Mean;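 further: Wnt-LIGHT reporter cells stimulated with conditioned medium from Wnt3a-producing cells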
[3] = bead-based luminescence quenchers, dual-tagged ARNT – biochemical, AlphaScreen, cherry-pick, artefact control for ARNT-TACC3 interaction inhibitor project, dose response (AID 651705); format: functional;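 further: AlphaScreen bead proximity signal that flags compounds interfering with the detection technology; potency reflects signal decrease which marks the compound as an assay artifact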
HEK293 [4] = assay: cells; format: functional, cell-based; settings: Homo sapiens
HEK293 [5] = assay: inhibition of NOD1-driven NF-kB reporter – cell-based, luminescence, uHTS, primary screen (AID 1578); format: functional; settings: Homo sapiens
[6] = molecular target: Mitochondrial peptide methionine sulfoxide reductase (Bos taurus, UniProt P54149); assay: Absorbance-based biochemical high throughput dose response assay for activators of Methionine sulfoxide reductase A (MsrA).; format: functional
HEK293 [7] = assay: cells; format: functional, cell-based; settings: Homo sapiens; remark: listed apart in the source
HEK293 [8] = assay: cells; format: functional, cell-based; settings: Homo sapiens; remark: listed apart in the source
[9] = molecular target: Nucleotide-binding oligomerization domain-containing protein 2 (Homo sapiens, UniProt Q9HC29); assay: inhibition of NOD2-driven NF-kB reporter – cell-based, luminescence, uHTS, HEK293 (AID 1566); format: functional
HEK293 [10] = assay: NOD2 signaling inhibitors in MDP-stimulated cells, cell-based, uHTS, luminescence (AID 2001); format: functional; settings: Homo sapiens
[11] = molecular target: Photoreceptor-specific nuclear receptor (Homo sapiens, UniProt Q9Y5X4); format: functional, cell-based;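 further: CHO-S cells with Gal4-NCOR and VP16-NR2E3 two-hybrid luciferase reporter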
Fatty acid synthase [12] = molecular target: T2, Fatty acid synthase (Homo sapiens, UniProt P49327); assay: inhibition of human FAS-TE enzyme activity – biochemical, endpoint fluorescence intensity, uHTS hits, dose response (AID 624327); format: functional;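 further: fluorescence from hydrolysis of an O-methyl fluorescein acyl ester substrate by the enzyme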
T2 sequence (P49327 whole entry): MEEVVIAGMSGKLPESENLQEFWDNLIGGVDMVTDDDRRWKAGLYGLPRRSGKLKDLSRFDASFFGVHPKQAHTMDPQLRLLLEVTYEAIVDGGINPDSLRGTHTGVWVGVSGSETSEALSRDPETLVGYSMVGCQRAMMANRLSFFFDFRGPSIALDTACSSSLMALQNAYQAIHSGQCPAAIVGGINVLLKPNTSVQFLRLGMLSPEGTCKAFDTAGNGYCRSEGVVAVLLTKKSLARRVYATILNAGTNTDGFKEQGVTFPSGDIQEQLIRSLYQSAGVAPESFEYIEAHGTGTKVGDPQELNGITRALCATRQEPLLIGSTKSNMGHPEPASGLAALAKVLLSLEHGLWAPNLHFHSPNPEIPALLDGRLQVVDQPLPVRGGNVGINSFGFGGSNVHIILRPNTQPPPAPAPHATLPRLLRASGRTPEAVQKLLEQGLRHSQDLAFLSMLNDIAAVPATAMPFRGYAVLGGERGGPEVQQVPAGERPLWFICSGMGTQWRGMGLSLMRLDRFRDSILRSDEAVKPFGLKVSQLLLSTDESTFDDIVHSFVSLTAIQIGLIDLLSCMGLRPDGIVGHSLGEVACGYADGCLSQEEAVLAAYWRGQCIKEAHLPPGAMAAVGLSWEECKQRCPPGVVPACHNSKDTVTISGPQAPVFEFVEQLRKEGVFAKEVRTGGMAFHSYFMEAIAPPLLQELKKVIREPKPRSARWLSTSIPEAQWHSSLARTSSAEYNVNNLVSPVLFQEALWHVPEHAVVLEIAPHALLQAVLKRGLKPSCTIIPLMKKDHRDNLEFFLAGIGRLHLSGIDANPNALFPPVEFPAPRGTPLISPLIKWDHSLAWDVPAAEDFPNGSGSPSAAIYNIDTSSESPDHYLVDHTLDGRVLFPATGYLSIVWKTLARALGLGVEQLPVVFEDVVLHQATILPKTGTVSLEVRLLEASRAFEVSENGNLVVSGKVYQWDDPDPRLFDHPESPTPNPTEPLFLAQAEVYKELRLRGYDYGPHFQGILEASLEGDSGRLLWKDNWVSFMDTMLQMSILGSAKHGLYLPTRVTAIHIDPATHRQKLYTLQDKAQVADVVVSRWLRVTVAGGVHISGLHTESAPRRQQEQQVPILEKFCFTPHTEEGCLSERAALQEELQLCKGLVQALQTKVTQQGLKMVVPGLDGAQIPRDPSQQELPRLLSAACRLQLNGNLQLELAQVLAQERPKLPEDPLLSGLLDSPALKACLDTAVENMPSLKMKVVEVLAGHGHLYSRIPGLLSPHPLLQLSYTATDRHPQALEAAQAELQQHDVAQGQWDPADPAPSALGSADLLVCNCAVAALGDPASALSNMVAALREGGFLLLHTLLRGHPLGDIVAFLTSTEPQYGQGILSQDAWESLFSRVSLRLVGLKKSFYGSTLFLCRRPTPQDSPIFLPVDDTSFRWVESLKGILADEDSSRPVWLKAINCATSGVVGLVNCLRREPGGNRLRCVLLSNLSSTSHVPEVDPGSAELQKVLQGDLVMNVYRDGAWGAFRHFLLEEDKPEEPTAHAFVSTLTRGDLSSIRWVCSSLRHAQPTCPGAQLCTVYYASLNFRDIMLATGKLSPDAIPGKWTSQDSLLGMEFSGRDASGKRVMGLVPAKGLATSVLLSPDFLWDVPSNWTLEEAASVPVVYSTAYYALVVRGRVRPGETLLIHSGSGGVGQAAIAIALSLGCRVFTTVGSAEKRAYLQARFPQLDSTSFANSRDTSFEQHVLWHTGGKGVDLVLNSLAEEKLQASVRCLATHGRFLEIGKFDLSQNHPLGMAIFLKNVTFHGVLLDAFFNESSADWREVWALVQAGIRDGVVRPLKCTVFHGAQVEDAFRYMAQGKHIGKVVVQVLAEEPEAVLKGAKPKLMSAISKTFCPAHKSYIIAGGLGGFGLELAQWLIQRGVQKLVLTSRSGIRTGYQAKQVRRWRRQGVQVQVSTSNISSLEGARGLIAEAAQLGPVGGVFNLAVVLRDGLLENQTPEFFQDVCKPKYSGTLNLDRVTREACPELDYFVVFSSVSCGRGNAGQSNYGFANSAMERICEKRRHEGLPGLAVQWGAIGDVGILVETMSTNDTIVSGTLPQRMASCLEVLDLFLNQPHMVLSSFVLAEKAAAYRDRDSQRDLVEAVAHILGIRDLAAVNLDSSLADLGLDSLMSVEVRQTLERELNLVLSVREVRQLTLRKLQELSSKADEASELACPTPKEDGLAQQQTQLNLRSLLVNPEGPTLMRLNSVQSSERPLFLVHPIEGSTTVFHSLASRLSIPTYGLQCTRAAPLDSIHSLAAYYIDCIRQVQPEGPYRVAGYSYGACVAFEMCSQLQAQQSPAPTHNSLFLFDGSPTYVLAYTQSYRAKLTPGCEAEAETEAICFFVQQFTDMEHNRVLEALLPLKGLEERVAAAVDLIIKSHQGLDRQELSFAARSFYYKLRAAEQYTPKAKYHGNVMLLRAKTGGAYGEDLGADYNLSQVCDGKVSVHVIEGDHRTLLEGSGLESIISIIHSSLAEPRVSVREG

Fatty acid synthase [13] = molecular target: T2, Fatty acid synthase; assay: inhibition of human FAS-TE enzyme activity – biochemical, kinetic fluorescence intensity, dose response (AID 624326); format: functional;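 further: rate of fluorescence rise from hydrolysis of a fluorogenic O-methyl fluorescein ester substrate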
[14] = Fluorescence-based cell-based high throughput dose response assay for inhibitors of the interaction of nucleotide-binding oligomerization domain containing 2 (NOD2) and the receptor-interacting serine-threonine kinase 2 (RIPK2).; format: functional; settings: Homo sapiens
Beta Lactamase = Beta Lactamase (Pseudomonas aeruginosa, UniProt Q932Y6); assay: BLA reporter interference, concentration series – BLA reporter cells, FRET fluorescence, artefact control for NOD2-RIPK2 interaction inhibitor project, dose response (AID 651552); format: functional, cell-based
Interleukin-8 [15] = molecular target: T3, Interleukin-8 (Homo sapiens, UniProt P10145); assay: Dose Response confirmation of uHTS small molecule hits for cystic fibrosis induced NFkb Inhibitors in a PAF-induced IL8 counterscreen.; format: functional; settings: read-out: IC50_Mean
T3 sequence (P10145 whole entry): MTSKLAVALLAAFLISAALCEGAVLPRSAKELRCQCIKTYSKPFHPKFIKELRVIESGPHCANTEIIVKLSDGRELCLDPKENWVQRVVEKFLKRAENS

Interleukin-8 [16] = molecular target: T3, Interleukin-8; assay: Dose Response confirmation of uHTS small molecule hits for cystic fibrosis induced NFkb Inhibitors in a TNFa-induced IL8 counterscreen.; format: functional; settings: read-out: IC50_Mean
[17] = molecular target: T4, Sentrin-specific protease 1 (Homo sapiens, UniProt Q9P0U3); assay: Dose response confirmation of small molecule inhibitors of the catalytic domain of the SUMO protease, SENP1 in a FRET assay.; format: functional; settings: read-out: IC50_Mean
T4 sequence (Q9P0U3 whole entry, the tested form may be a part): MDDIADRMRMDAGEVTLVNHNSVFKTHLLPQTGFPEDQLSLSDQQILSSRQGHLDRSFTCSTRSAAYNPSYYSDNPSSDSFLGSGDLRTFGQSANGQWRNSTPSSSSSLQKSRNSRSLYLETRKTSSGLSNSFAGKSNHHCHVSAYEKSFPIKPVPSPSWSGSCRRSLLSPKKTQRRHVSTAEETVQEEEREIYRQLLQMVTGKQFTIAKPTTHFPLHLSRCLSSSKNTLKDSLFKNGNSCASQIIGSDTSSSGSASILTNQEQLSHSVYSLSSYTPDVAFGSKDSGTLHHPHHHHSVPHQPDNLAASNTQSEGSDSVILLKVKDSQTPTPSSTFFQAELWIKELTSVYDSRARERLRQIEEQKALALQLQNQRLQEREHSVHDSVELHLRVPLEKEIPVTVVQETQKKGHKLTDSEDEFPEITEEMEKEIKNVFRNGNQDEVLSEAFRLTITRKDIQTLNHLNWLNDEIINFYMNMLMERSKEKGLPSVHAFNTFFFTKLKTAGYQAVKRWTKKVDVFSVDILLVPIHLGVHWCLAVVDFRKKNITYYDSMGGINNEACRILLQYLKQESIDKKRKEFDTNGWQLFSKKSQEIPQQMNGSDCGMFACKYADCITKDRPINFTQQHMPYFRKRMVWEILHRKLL

[18] = molecular target: T4, Sentrin-specific protease 1; assay: SENP1 catalytic domain blockers, concentration series – biochemical, kinetic FRET, dose response (AID 651697); format: functional; settings: read-out: IC50_Mean
[19] = molecular target: Adenosylmethionine-8-amino-7-oxononanoate aminotransferase (Mycobacterium tuberculosis, UniProt P9WQ81); assay: Mycobacterium tuberculosis BioA enzyme inhibitor Measured in Biochemical System Using Plate Reader - 2163-02_Inhibitor_Dose_CherryPick_Activity.; format: functional, Mycobacterium tuberculosis UT205
Sequence of Adenosylmethionine-8-amino-7-oxononanoate aminotransferase (P9WQ81 whole entry): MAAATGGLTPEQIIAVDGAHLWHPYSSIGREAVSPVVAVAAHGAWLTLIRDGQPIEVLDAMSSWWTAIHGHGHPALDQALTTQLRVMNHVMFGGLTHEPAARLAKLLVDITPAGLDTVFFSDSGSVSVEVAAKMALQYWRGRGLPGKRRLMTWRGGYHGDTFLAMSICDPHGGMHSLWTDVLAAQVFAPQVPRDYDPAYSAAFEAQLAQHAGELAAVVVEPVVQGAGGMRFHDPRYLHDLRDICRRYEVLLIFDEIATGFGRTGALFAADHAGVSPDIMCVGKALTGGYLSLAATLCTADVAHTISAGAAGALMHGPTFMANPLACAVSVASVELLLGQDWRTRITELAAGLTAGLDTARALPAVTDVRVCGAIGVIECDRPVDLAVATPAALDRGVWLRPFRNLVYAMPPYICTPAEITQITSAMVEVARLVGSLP

[20] = molecular target: T5, Apoptotic protease-activating factor 1 (Homo sapiens, UniProt O14727); assay: SAR analysis of small molecule Activators of Apaf-1 in a Fluorescent assay.; format: functional; settings: read-out: EC50_Mean;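 further: caspase-3 cleavage of fluorogenic Rh110 DEVD substrate downstream of apoptosome activation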
T5 sequence (O14727 whole entry): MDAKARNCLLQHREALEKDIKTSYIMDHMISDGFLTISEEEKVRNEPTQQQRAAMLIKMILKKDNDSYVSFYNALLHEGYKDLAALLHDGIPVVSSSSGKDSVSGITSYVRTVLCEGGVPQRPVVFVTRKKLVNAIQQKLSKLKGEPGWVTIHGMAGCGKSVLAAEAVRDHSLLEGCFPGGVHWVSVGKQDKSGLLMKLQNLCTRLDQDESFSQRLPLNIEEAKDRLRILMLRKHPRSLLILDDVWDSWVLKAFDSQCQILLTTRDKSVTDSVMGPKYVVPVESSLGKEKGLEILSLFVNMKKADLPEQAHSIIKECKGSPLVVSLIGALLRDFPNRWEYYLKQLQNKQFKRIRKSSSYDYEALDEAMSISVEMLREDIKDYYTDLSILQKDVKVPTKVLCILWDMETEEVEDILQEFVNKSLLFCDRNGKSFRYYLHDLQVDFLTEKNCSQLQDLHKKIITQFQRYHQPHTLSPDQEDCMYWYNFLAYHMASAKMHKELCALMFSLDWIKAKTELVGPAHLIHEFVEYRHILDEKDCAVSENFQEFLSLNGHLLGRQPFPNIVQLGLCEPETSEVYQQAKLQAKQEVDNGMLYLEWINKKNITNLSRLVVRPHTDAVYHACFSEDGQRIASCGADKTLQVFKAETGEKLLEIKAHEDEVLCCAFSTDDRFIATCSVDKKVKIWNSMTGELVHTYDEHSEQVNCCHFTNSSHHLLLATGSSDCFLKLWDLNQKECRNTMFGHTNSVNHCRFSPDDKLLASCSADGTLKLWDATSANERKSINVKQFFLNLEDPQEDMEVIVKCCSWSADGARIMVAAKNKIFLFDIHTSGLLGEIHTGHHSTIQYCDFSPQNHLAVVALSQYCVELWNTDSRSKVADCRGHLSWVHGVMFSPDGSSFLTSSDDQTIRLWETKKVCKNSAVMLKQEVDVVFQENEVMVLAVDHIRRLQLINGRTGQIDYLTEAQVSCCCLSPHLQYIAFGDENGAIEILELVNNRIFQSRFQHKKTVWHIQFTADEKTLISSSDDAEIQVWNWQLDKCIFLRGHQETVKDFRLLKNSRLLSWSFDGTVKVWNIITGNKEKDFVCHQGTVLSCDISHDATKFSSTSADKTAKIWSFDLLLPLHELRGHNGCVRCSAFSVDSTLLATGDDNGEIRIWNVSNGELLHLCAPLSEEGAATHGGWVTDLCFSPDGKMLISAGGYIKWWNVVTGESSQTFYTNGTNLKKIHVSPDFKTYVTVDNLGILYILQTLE

cells = format: functional
INS1 = assay: INS-1E survival protection against cytokine death – cell-based, luminescence, retest, dose response (AID 449756); format: functional; settings: Rattus norvegicus;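 further: cell death triggered by IL-1 beta plus TNF-alpha plus IFN-gamma mixture; protective hits raise ATP signal compared with cytokine alone wells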
[21] = molecular target: T6, Ubiquitin-conjugating enzyme E2 N (Homo sapiens, UniProt P61088); format: functional;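 further: Dose-response confirmation in a TR-FRET assay detecting UBC13-driven polyubiquitin chain formation, inhibition measured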
T6 sequence (P61088 whole entry): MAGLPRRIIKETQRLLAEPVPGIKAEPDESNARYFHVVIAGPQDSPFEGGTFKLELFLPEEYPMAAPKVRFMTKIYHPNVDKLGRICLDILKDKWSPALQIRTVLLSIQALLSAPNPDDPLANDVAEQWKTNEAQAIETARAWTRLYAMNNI

[22] = NIH-3T3 fibroblast cytotoxicity, dose response, cytotoxicity control, cell-based, fluorescence, Alamar Blue, secondary assay (AID 2327); format: functional;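 further: NIH-3T3 mouse fibroblasts cultured with fluconazole at 8 µg/mL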
[23] = fluconazole-exposed Candida albicans growth modulators – fluorescence, retest, confirmation (AID 2467); format: functional, cell-based
[24] = THP-1 cell cytotoxicity, dose response, cytotoxicity control for non-replicating M. tuberculosis project (AID 489025); format: functional
[25] = molecular target: T7, Multidrug resistance protein CDR2 (Candida albicans (strain SC5314 / ATCC MYA-2876) (Yeast), UniProt P78595); assay: blockers of Nile Red efflux by Candida CDR2 – S. cerevisiae AD1-8u, singleplex, Cherry Pick2 set, dose response (AID 623994); format: functional; settings: read-out: EC50_MICROM
T7 sequence (P78595 whole entry): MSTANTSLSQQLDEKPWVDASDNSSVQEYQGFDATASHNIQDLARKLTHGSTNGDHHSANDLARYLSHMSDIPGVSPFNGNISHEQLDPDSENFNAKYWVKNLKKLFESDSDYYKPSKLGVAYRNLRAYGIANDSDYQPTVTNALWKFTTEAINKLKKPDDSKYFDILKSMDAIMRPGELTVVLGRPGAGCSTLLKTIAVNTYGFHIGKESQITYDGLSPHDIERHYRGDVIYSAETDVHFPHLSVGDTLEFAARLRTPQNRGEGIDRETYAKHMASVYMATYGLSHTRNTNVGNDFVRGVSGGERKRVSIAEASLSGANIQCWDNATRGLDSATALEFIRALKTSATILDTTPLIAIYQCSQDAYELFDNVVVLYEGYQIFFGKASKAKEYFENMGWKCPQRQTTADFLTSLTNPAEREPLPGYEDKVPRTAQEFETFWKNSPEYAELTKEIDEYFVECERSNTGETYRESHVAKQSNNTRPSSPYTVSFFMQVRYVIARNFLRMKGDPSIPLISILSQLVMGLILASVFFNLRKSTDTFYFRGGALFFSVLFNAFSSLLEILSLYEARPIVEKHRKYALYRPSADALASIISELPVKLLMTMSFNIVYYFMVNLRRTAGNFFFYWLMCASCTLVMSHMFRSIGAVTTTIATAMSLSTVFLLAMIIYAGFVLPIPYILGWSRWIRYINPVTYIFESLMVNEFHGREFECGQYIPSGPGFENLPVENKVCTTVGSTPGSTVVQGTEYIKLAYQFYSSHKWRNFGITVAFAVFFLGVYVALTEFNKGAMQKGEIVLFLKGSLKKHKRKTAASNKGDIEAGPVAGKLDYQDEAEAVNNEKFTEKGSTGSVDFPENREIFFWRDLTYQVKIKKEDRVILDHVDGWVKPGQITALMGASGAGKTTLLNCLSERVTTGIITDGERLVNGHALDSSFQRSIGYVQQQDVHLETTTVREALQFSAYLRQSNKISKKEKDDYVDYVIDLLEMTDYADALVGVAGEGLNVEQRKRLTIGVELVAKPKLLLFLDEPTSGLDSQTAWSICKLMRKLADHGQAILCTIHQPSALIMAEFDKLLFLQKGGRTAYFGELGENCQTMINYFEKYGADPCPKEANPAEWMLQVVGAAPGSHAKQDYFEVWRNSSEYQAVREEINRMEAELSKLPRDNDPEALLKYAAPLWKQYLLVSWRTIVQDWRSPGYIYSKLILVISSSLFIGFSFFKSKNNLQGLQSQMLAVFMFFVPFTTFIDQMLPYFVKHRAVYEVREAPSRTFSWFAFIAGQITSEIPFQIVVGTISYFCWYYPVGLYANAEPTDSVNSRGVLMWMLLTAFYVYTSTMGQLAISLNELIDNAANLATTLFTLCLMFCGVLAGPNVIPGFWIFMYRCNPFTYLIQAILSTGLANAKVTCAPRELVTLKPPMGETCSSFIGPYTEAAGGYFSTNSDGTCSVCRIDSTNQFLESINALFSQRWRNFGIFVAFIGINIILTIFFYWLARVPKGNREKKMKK

Melanocortin receptor 4 = Melanocortin receptor 4 (Homo sapiens, UniProt P32245); format: functional, cell-based;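 further: Cell-based assay with luminescence read-out, confirmatory dose-response testing for agonist activity of biased ligands at MC4R; human U2OS cells with tagged receptor and beta-arrestin; potency of agonists that increase receptor coupling to beta-arrestin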
[26] = molecular target: Opioid receptors; mu & delta (Homo sapiens, UniProt P41143+P35372); assay: OPRM1-OPRD1 heterodimer agonist potency – cell-based, luminescence, counter-screen for MC4R biased agonist project, dose response (AID 602264); format: functional

T1 sequence (P08183 whole entry): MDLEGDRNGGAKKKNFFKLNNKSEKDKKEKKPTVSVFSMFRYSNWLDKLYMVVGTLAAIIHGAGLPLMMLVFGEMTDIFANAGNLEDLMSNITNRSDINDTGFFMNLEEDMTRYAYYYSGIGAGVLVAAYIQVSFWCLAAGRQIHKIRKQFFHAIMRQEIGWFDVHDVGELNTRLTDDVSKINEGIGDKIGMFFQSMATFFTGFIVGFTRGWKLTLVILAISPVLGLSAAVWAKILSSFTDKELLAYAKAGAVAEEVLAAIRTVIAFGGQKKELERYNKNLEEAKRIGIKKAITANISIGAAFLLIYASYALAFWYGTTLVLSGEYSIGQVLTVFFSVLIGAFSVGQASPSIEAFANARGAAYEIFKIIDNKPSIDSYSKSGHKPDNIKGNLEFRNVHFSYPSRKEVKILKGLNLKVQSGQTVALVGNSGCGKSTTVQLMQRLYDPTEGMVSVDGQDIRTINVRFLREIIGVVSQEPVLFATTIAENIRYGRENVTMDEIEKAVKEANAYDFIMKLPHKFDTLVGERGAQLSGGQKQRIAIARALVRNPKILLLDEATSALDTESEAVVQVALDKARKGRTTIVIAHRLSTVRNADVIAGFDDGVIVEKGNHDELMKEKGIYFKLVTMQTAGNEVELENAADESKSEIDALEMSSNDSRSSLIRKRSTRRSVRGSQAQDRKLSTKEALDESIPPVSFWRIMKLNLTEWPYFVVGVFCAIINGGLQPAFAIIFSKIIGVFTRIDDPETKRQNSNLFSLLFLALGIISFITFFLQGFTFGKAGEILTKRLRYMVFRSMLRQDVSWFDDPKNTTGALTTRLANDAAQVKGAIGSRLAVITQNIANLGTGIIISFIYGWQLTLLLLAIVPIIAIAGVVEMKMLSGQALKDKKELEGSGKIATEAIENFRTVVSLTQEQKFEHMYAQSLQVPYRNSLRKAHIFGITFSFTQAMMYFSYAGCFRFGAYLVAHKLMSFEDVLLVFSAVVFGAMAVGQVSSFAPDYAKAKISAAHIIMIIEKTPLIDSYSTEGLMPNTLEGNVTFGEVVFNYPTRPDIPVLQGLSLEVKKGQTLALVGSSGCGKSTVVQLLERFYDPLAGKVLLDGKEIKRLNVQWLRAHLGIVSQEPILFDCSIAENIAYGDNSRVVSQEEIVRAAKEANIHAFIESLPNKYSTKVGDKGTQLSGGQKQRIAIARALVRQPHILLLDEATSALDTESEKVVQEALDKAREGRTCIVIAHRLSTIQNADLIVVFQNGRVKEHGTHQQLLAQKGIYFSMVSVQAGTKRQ

CC(=O)N1CCN(c2c(C)c(C)nc3cc(-c4cccc(F)c4)nn23)CC1
EC50 [1]: 4.22 µM (active) | EC50 [2]: 5.95 µM (inactive)

CC(C)(C)[C@H]1COC(=O)[C@H](NC(=O)OCC2c3ccccc3-c3ccccc32)C/C=C\C[C@@H](CC(=O)N[C@@H](CO)Cc2ccccc2)C(=O)N1
IC50 (Protein Wnt-3a): 18.6 µM (active)

COc1ccccc1-c1nnc(NC(=O)c2cccc(N3C(=O)CCC3=O)c2)o1
AC50 [3]: 133 µM (active)

Cc1ccc(NS(=O)(=O)c2ccc3c(c2)C(=O)c2ccccc2C3=O)c(C)c1
IC50 (HEK293 [4]): 7.68 µM (active) | EC50 (HEK293 [5]): 6.34 µM (active) | EC50 [6]: > 104 µM (inactive) | IC50 (HEK293 [7]): > 20 µM (inactive) | IC50 (HEK293 [8]): > 20 µM (inactive) | EC50 [9]: > 20 µM (inactive) | IC50 (HEK293 [10]): 6.68 µM (active)

CCOC(=O)[C@]12Cc3cc(C)ccc3[C@H]1N(C1CCCCC1)C(=O)c1cc(OC)ccc12
IC50 [11]: 4.3 µM (active) | IC50 (Fatty acid synthase [12]): 5.45 µM (active) | IC50 (Fatty acid synthase [13]): 6.32 µM (active) | IC50 [14]: 1.62 µM (active) | IC50 (Beta Lactamase): 19.3 µM (inactive)

COC(=O)N1C(=O)[C@@](c2ccccc2)(C(C)C)N1C(=O)OC
IC50 (Interleukin-8 [15]): 1.82 µM (active) | IC50 (Interleukin-8 [16]): 2.15 µM (active)

COc1ccc2c(c1)c1nc3ccccc3nc1n2Cc1ccc(OC(C)C)c(OC)c1
IC50 [17]: 34.7 µM (inactive) | IC50 [18]: 24.4 µM (inactive)

CN1CCCC1CCOC(C)(c1ccccc1)c1ccc(Cl)cc1 (stereo unspecified)
AC50 [19]: 10.6 µM (active)

COc1ccc(Cl)cc1NC(=O)CCS(=O)(=O)c1cc2c(cc1Br)CCN2C(C)=O
EC50 [20]: > 100 µM (inactive)

NC1=NC[C@H](Cc2ccccc2)N1CCCCC1CCCCC1
IC50 (cells): 23.6 µM (active) | AC50 (INS1): 5.54 µM (active) | IC50 [21]: > 20 µM (inactive) | EC50 [22]: > 160 µM (inactive) | EC50 [23]: 2.37 µM (active) | CC50 [24]: 7.59 µM (active) | EC50 [25]: 34.7 µM (active)

NC(Cc1ccc(C(F)(F)F)cc1)c1csc(Nc2ccc(C(=O)NCc3ccco3)cn2)n1 (stereo unspecified)
EC50 (Melanocortin receptor 4): > 9.91 µM (active) | EC50 [26]: > 7.173 µM

From ChEMBL document CHEMBL1201862, “PubChem BioAssay data set” (2004)
